Data: patent US9040459B2, “Herbicidal compositions comprising aminopyralid and propanil” (Dow AgroSciences, LLC., priority 2012, dated 2015)

Tests used:
Assay in all cases: Postemergence herbicidal activity under field conditions, visual weed control
Assay type in all cases: in vivo
Conditions in all cases: post-emergence field trial
[1] = tested on: Cyperus iria L. (rice flatsedge, CYPIR)
Method: (§1) These trials were conducted under field conditions in Espinal, Colombia. Trial sites were located in commercially grown fields of common rice (Oryza sativa). The rice crop was grown using normal cultural practices for fertilization, seeding, and maintenance to ensure good growth of the crop and the weeds. The trials were conducted using normal research methodology. Trial plots were 2 meters (m) wide by 5 m long. All treatments were applied using a randomized complete block trial design with 4 replications per treatment. The trial sites had naturally occurring populations of weeds. The weed spectrum included, but was not limited to, Cyperus iria L. (rice flatsedge, CYPIR), Digitaria horizontalis (Jamaican crabgrass, DIGHO), Eleusine indica L. Gaertn. (goosegrass, ELEIN), Portulaca oleracea L. (common purslane, POROL) and Phyllanthus niruri L. (gripeweed, PYLNI). The plots were treated with a postemergence foliar application 15 to 20 days after emergence of the rice.
(§2) Treatments consisted of tank mixes of aminopyralid triisopropanolammonium salt (MILESTONE 240SL) and a commercially available formulation of propanil herbicide (STAM 480EC). The application volume was 200 liters per hectare (L/ha) of water. All applications were made using precision gas hand sprayers with a 3 m boom using flat fan 8002 nozzles to broadcast the treatments over the top of the rice and weeds.
(§3) The treated plots and control plots were rated blind at various intervals after application. Ratings were based on Percent (%) Visual weed control, where 0 corresponds to no injury and 100 corresponds to complete kill.
(§4) Colby's equation was used to determine the herbicidal effects expected from the mixtures (Colby, S. R. Calculation of the synergistic and antagonistic response of herbicide combinations. Weeds 1967 15, 20-22).
(§5) The following equation was used to calculate the expected activity of mixtures containing two active ingredients, A and B: Expected=A+B−(A×B/100)
(§6) A=observed efficacy of active ingredient A at the same concentration as used in the mixture;
(§7) B=observed efficacy of active ingredient B at the same concentration as used in the mixture.

[2] = tested on: Digitaria horizontalis (Jamaican crabgrass, DIGHO)
Method: as §1, §2, §3, §4, §5, §6, §7

[3] = tested on: Eleusine indica L. Gaertn. (goosegrass, ELEIN)
Method: as §1, §2, §3, §4, §5, §6, §7

[4] = tested on: Phyllanthus niruri L. (gripeweed, PYLNI)
Method: as §1, §2, §3, §4, §5, §6, §7

[5] = tested on: Portulaca oleracea L. (common purslane, POROL)
Method: as §1, §2, §3, §4, §5, §6, §7

## Nc1cc(Cl)nc(C(=O)O)c1Cl [Aminopyralid, 4-amino-3,6-dichloro-2-pyridinecarboxylic acid]
[1]; aminopyralid 4 g ae/ha alone
  Visual Weed Control (%) CYPIR 15 DAA Obs: 4.5%
  Visual Weed Control (%) CYPIR 32 DAA Obs: 0%
[1]; aminopyralid 8 g ae/ha alone
  Visual Weed Control (%) CYPIR 32 DAA Obs: 10%
[1]; aminopyralid 16 g ae/ha alone
  Visual Weed Control (%) CYPIR 15 DAA Obs: 15%
  Visual Weed Control (%) CYPIR 32 DAA Obs: 10%
[2]; aminopyralid 8 g ae/ha alone
  Visual Weed Control (%) DIGHO 8 DAA Obs: 0%
[2]; aminopyralid 16 g ae/ha alone
  Visual Weed Control (%) DIGHO 8 DAA Obs: 0%
[3]; aminopyralid 4 g ae/ha alone
  Visual Weed Control (%) ELEIN 8 DAA Obs: 0%
[3]; aminopyralid 8 g ae/ha alone
  Visual Weed Control (%) ELEIN 8 DAA Obs: 0%
[3]; aminopyralid 16 g ae/ha alone
  Visual Weed Control (%) ELEIN 8 DAA Obs: 0%
[4]; aminopyralid 4 g ae/ha alone
  Visual Weed Control (%) PYLNI 8 DAA Obs: 0%
[4]; aminopyralid 8 g ae/ha alone
  Visual Weed Control (%) PYLNI 8 DAA Obs: 3%
[4]; aminopyralid 16 g ae/ha alone
  Visual Weed Control (%) PYLNI 8 DAA Obs: 3%
[5]; aminopyralid 4 g ae/ha alone
  Visual Weed Control (%) POROL 8 DAA Obs: 36%
[5]; aminopyralid 8 g ae/ha alone
  Visual Weed Control (%) POROL 8 DAA Obs: 68%
[5]; aminopyralid 16 g ae/ha alone
  Visual Weed Control (%) POROL 8 DAA Obs: 93%

## CCC(=O)Nc1ccc(Cl)c(Cl)c1 [Propanil, N-(3,4-dichloro-phenyl)propanamide]
[1]; propanil 480 g ai/ha alone
  Visual Weed Control (%) CYPIR 15 DAA Obs: 35%
  Visual Weed Control (%) CYPIR 32 DAA Obs: 20%
[1]; propanil 960 g ai/ha alone
  Visual Weed Control (%) CYPIR 32 DAA Obs: 58%
[2]; propanil 480 g ai/ha alone
  Visual Weed Control (%) DIGHO 8 DAA Obs: 51%
[3]; propanil 480 g ai/ha alone
  Visual Weed Control (%) ELEIN 8 DAA Obs: 48%
[4]; propanil 480 g ai/ha alone
  Visual Weed Control (%) PYLNI 8 DAA Obs: 45%
[5]; propanil 480 g ai/ha alone
  Visual Weed Control (%) POROL 8 DAA Obs: 49%
